Laboratory results as given in US20210045385A1, “PYRIDAZINONE-SUBSTITUTED KETOXIMES AS HERBICIDES” (FMC Corporation, priority 2018, published 2021).

Key:
Type in all cases: in vivo
[1] = tested on: ragweed (common ragweed, Ambrosia artemisiifolia); assay: Test C preemergence, visual plant response rating; conditions: Test C, 0 is no effect, 100 is complete control
How it was run: (§1)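 Visual injury on a 0 (no effect) to 100 (complete control) scale versus untreated controls, scored approximately 10 d after treatment under greenhouse conditions. Treatments used surfactant-containing non-phytotoxic solvent formulations, sprayed onto loam–sand soil preemergence or onto one- to two-leaf plants 2–10 cm tall postemergence.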

[2] = tested on: foxtail, giant (giant foxtail, Setaria faberi); assay: Test C preemergence, visual plant response rating; conditions: Test C, 0 is no effect, 100 is complete control
How it was run: as §1

[3] = tested on: Italian ryegrass (Lolium mutiflorum); assay: Test C preemergence, visual plant response rating; conditions: Test C, 0 is no effect, 100 is complete control
How it was run: as §1

kochia (Bassia scoparia) [4] = assay: Test C preemergence, visual plant response rating; conditions: Test C, 0 is no effect, 100 is complete control
How it was run: as §1

[5] = tested on: barnyardgrass (Echinochloa crus-galli); assay: Test C preemergence, visual plant response rating; conditions: Test C, 0 is no effect, 100 is complete control
How it was run: as §1

[6] = tested on: pigweed (Amaranthus retroflexus); assay: Test C preemergence, visual plant response rating; conditions: Test C, 0 is no effect, 100 is complete control
How it was run: as §1

[7] = tested on: ragweed (common ragweed, Ambrosia artemisiifolia); assay: Test C postemergence, visual plant response rating
How it was run: as §1

[8] = tested on: foxtail, giant (giant foxtail, Setaria faberi); assay: Test C postemergence, visual plant response rating
How it was run: as §1

[9] = tested on: blackgrass (Alopecurus myosuroides); assay: Test C postemergence, visual plant response rating
How it was run: as §1

[10] = tested on: Italian ryegrass (Lolium mutiflorum); assay: Test C postemergence, visual plant response rating
How it was run: as §1

kochia (Bassia scoparia) [11] = assay: Test C postemergence, visual plant response rating
How it was run: as §1

corn (Zea mays) = assay: Test C postemergence, visual plant response rating
How it was run: as §1

[12] = tested on: barnyardgrass (Echinochloa crus-galli); assay: Test C postemergence, visual plant response rating
How it was run: as §1

[13] = tested on: wheat (Triticum aestivum); assay: Test C postemergence, visual plant response rating
How it was run: as §1

[14] = tested on: pigweed (Amaranthus retroflexus); assay: Test C postemergence, visual plant response rating
How it was run: as §1

[15] = tested on: galium (catchweed bedstraw, Galium aparine); assay: Test C postemergence, visual plant response rating
How it was run: as §1

[16] = tested on: barnyardgrass (Echinochloa crus-galli); assay: Test D flooded paddy test, visual plant response rating; conditions: 250 g ai/ha, scale 0 to 100 (0 no effect, 100 complete control), 13 to 15 d
How it was run: (§2)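 Rating is visual, on a 0 (no effect) to 100 (complete control) scale versus controls, taken 13 to 15 d after treatment in a greenhouse. Treatment went into paddy water kept 3 cm above the soil surface, with plants at the 2-leaf stage.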

rice (Oryza sativa) = assay: as above; conditions: 250 g ai/ha, scale 0 to 100 (0 no effect, 100 complete control), 13 to 15 d
How it was run: as §2

[17] = tested on: duck salad (Heteranthera limosa); assay: as above; conditions: 250 g ai/ha, scale 0 to 100 (0 no effect, 100 complete control), 13 to 15 d
How it was run: as §2

[18] = tested on: sedge umbrella (small-flower umbrella sedge, Cyperus difformis); assay: as above; conditions: 250 g ai/ha, scale 0 to 100 (0 no effect, 100 complete control), 13 to 15 d
How it was run: as §2

[19] = Test C, postemergence, 125 g ai/ha

CO/N=C(/c1ccc(F)c(Cl)c1)c1c(O)c(C)nn(C)c1=O [Compound 218]
Ragweed plant response rating (0 to 100 scale) ([1]; 31 g ai/ha): 0 | Ragweed plant response rating (0 to 100 scale) ([1]; 125 g ai/ha): 0 | Foxtail, Giant plant response rating (0 to 100 scale) ([2]; 31 g ai/ha): 0 | Foxtail, Giant plant response rating (0 to 100 scale) ([2]; 125 g ai/ha): 0 | Ryegrass, Italian plant response rating (0 to 100 scale) ([3]; 31 g ai/ha): 0 | Ryegrass, Italian plant response rating (0 to 100 scale) ([3]; 125 g ai/ha): 10 | Kochia plant response rating (0 to 100 scale) (kochia (Bassia scoparia) [4]; 31 g ai/ha): 0 | Kochia plant response rating (0 to 100 scale) (kochia (Bassia scoparia) [4]; 125 g ai/ha): 0 | Barnyardgrass plant response rating (0 to 100 scale) ([5]; 31 g ai/ha): 0 | Barnyardgrass plant response rating (0 to 100 scale) ([5]; 125 g ai/ha): 0 | Pigweed plant response rating (0 to 100 scale) ([6]; 31 g ai/ha): 0 | Pigweed plant response rating (0 to 100 scale) ([6]; 125 g ai/ha): 0 | Ragweed plant response rating (0 to 100 scale) ([7]; Postemergence, 31 g ai/ha): 0 | Ragweed plant response rating (0 to 100 scale) [7, 19]: 10 | Foxtail, Giant plant response rating (0 to 100 scale) ([8]; Postemergence, 31 g ai/ha): 0 | Foxtail, Giant plant response rating (0 to 100 scale) [8, 19]: 0 | Blackgrass plant response rating (0 to 100 scale) ([9]; Postemergence, 31 g ai/ha): 0 | Blackgrass plant response rating (0 to 100 scale) [9, 19]: 0 | Ryegrass, Italian plant response rating (0 to 100 scale) ([10]; Postemergence, 31 g ai/ha): 40 | Ryegrass, Italian plant response rating (0 to 100 scale) [10, 19]: 60 | Kochia plant response rating (0 to 100 scale) (kochia (Bassia scoparia) [11]; Postemergence, 31 g ai/ha): 10 | Kochia plant response rating (0 to 100 scale) (kochia (Bassia scoparia) [11]; [19]): 30 | Corn plant response rating (0 to 100 scale) (corn (Zea mays); Postemergence, 31 g ai/ha): 0 | Corn plant response rating (0 to 100 scale) (corn (Zea mays); [19]): 0 | Barnyardgrass plant response rating (0 to 100 scale) ([12]; Postemergence, 31 g ai/ha): 0 | Barnyardgrass plant response rating (0 to 100 scale) [12, 19]: 10 | Wheat plant response rating (0 to 100 scale) ([13]; Postemergence, 31 g ai/ha): 0 | Wheat plant response rating (0 to 100 scale) [13, 19]: 0 | Pigweed plant response rating (0 to 100 scale) ([14]; Postemergence, 31 g ai/ha): 20 | Pigweed plant response rating (0 to 100 scale) [14, 19]: 60 | Galium plant response rating (0 to 100 scale) ([15]; Postemergence, 31 g ai/ha): 50 | Galium plant response rating (0 to 100 scale) [15, 19]: 80 | Plant response rating, Barnyardgrass (Flood) [16]: 0 | Plant response rating, Rice (Flood) (rice (Oryza sativa)): 0 | Plant response rating, Ducksalad (Flood) [17]: 0 | Plant response rating, Sedge, Umbrella (Flood) [18]: 0
